Patent EP0527427A2, “Catalysts and casting article, method, and composition” (MINNESOTA MINING AND MANUFACTURING COMPANY, priority 1991, dated 1993)

What was measured:
[1] = pKa by potentiometric backtitration (compounds of Formula II, Table IX); type: physicochemical; conditions: half-neutralization point taken as pKa; backtitration with 0.01N sodium hydroxide
Description: Several of the compounds of the invention were characterized by their titration curves (i.e., their pKa values) as follows: To a 0.1 g sample of a compound of the invention was added with stirring 60 mL of distilled water, then 10 mL of 0.1N hydrochloric acid was added. The solution was stirred for 10 minutes. The pH of the solution was then measured potentiometrically using a Metrohm Model 670 TITROPROCESSOR™ potentiometer (Brinkman Instruments Inc., Westbury, NY) while backtitrating with 0.01N sodium hydroxide solution. The endpoints and half-neutralization points were determined by the instrument, and for the purposes of this determination the half-neutralization point is taken as the pKa.

[2] = Farm.Zh. (Kiev) 1990, 1, 38; cited from earlier work
[3] = Khim.-Farm.Zh. 1983, 17, 916; cited from earlier work
[4] = pKa by potentiometric backtitration (catalysts, Table I); type: physicochemical; conditions: half-neutralization point taken as pKa; backtitration with 0.1N sodium hydroxide
Description: The solution was stirred for 10 minutes, then backtitrated with 0.1N sodium hydroxide solution. The pH during backtitration was measured potentiometrically using a Metrohm Model 670 TITROPROCESSOR™ potentiometer (Brinkman Instruments Inc., Westbury, NY). The endpoint and half-neutralization point were determined by the instrument, and for the purposes of this determination the half-neutralization point is taken as the pKa.

Measured pKa first [1] | Measured pKa second [1] | Structure (SMILES) | further results
9.15 | 7.03 | CN1CCCCC1COC(=O)CN1CCCC1 (stereo not shown) [2-(1-Methylpiperidyl)methyl 1-Pyrrolidineacetate] | 
9.26 | 7.12 | O=C(CN1CCCC1)OCCN1CCCC1 [2-(1-Pyrrolidinyl)ethyl 1-Pyrrolidineacetate] | 
8.97 | 6.72 | O=C(CN1CCCC1)OCCN1CCCCC1 [2-(1-piperidino)ethyl 1-pyrrolidineacetate] | 
 |  | CCN(CC)CCOC(=O)CN(C)C [2-(Diethylamino)ethyl dimethylaminoacetate] | inotropic activity [2]: significant inotropic activity; analgesic activity [3]: analgesic activity
 |  | CN(C)CCOC(=O)CN(C)C [(CH3)2NCH2C(O)OCH2CH2N(CH3)2, 2-(N,N-Dimethylamino)ethyl N,N-Dimethylaminoacetate] | Measured pKa first [4]: 8.53; Measured pKa second [4]: 6.49
